The text below walks through data of EP4722213A1, “NITROGEN-CONTAINING FUNCTIONAL GROUP-SUBSTITUTED PYRIDAZINOPYRIDONE DERIVATIVE AND USE THEREOF” (Sichuan Huiyu Pharmaceutical Co., Ltd., priority 2023, dated 2024).

For orientation: IC50 means the concentration that gives 50% inhibition.

For one experiment, the target named is T1, CYP2C19 (Homo sapiens, UniProt P33261).
T1 construct: human liver microsomes were used as the CYP450 enzyme source; from tissue; host or cells: human liver microsomes
Briefly: Inhibition of hepatic drug-metabolizing enzymes in human liver microsomes. Format: in vitro ADME. Conditions: human liver microsomes; read-out: Inhibitory activity on drug-metabolizing enzymes (IC50, µM) CYP2C19. On the technique in general: Liver microsomes are vesicles of endoplasmic reticulum, rich in cytochrome P450 enzymes.

The next experiment has as its target T2, CYP2C9 (Homo sapiens, UniProt P11712).
T2 construct: human liver microsomes were used as the CYP450 enzyme source; from tissue; host or cells: human liver microsomes
Described as above. The class given is in vitro ADME. The settings on record: human liver microsomes; read-out: Inhibitory activity on drug-metabolizing enzymes (IC50, µM) CYP2C9.

A further experiment concerns the target T3, CYP3A4 (Homo sapiens, UniProt P08684).
T3 construct: human liver microsomes were used as the CYP450 enzyme source; from tissue; host or cells: human liver microsomes
Description: Inhibition of hepatic drug-metabolizing enzymes in human liver microsomes (substrates midazolam and testosterone). Format: in vitro ADME.

A further experiment concerns the target T4, SOS1 (Homo sapiens, UniProt Q07889).
T4 sequence (Q07889 1-1333): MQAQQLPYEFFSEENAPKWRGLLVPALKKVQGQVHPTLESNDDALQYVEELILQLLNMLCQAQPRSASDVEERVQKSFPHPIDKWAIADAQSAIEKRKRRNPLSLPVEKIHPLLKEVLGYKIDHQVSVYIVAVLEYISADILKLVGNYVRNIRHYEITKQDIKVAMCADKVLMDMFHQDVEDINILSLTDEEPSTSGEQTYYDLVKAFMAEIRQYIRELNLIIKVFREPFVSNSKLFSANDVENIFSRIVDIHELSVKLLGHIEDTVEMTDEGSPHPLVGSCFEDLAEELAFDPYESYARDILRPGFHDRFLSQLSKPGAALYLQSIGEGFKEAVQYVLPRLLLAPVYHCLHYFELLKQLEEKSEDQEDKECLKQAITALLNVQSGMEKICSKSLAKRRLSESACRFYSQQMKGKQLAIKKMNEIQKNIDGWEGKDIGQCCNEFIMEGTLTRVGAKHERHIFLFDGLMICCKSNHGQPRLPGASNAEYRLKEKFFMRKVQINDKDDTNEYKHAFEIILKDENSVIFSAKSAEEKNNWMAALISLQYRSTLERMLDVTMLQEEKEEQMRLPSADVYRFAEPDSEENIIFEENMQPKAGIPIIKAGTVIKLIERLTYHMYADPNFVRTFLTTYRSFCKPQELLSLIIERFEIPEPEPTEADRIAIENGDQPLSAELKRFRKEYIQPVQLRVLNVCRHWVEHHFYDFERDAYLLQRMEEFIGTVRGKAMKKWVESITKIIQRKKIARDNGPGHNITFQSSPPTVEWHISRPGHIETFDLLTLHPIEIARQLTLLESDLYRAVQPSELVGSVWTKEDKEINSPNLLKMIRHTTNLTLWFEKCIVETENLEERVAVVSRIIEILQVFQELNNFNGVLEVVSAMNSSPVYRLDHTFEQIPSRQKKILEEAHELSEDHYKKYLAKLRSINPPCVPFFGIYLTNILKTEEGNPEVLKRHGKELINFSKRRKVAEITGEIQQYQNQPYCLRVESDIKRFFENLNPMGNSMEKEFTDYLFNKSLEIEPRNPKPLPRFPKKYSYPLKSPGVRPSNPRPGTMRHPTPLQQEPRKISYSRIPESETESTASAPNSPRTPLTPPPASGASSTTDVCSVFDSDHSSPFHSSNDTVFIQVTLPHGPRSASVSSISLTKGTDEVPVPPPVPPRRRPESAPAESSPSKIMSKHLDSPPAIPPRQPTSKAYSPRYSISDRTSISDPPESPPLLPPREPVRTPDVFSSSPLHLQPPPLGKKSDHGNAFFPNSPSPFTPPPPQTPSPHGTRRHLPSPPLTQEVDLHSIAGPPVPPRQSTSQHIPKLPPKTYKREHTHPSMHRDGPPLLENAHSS
Briefly: biochemical.

[1] abbreviates: substrate midazolam, read-out: Inhibitory activity on drug-metabolizing enzymes (IC50, µM) CYP3A4-M.
Setting [2] is: substrate testosterone, read-out: Inhibitory activity on drug-metabolizing enzymes (IC50, µM) CYP3A4-T.

Molecules are shown by their SMILES. Where two headings read alike, the source gives them in different places.

T3 sequence (P08684 whole entry): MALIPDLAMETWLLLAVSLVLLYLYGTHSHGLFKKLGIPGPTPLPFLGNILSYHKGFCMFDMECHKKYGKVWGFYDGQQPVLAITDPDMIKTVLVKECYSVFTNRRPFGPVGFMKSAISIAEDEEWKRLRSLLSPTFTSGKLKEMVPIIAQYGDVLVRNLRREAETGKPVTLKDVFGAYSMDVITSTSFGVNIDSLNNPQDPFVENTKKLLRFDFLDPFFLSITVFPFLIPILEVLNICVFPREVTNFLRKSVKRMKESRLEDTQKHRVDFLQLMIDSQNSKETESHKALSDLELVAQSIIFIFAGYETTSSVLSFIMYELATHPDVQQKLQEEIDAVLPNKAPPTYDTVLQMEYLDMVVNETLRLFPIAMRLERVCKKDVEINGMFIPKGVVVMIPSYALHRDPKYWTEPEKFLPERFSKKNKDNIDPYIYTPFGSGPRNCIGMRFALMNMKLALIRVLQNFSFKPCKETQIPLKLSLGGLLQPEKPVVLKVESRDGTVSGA
T2 sequence (P11712 whole entry): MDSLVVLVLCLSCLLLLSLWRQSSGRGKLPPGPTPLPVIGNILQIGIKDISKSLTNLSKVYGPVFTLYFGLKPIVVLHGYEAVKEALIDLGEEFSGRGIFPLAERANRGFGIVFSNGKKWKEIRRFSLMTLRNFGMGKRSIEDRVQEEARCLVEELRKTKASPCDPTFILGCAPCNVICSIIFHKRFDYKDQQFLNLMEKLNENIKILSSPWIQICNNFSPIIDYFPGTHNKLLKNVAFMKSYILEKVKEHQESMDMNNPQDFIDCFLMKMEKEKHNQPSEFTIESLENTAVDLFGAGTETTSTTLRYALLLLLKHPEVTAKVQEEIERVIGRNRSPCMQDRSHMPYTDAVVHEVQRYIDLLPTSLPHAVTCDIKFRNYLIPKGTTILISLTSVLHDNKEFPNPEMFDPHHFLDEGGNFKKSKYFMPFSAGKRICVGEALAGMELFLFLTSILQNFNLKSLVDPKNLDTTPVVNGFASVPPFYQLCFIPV
T1 sequence (P33261 whole entry): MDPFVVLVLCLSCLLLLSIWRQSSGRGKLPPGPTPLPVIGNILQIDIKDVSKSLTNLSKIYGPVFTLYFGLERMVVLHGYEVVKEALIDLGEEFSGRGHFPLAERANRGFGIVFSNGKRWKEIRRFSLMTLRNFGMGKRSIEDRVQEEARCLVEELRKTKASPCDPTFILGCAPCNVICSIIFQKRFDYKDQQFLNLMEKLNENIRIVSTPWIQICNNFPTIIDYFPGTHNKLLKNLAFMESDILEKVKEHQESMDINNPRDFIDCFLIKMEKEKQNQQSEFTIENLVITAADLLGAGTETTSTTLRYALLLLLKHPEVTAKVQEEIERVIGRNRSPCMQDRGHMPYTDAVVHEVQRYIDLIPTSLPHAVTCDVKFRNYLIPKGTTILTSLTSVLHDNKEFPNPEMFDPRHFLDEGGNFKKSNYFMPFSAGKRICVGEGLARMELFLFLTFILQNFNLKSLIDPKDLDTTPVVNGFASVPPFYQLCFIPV

For the compound `C[C@@H](Nc1nnc(N2CCN(C3CCCC3)CC2)c2cc(=O)n(N3CCOCC3)cc12)c1cccc(C(F)F)c1F` [Example 120, (R)-4-((1-(3-(difluoromethyl)-2-fluorophenyl)ethyl)amino)-1-(4-cyclopentylpiperazin-1-yl)-6-morpholinopyrido[3 ,4-d]pyridazin-7(6H)-one], the IC50 was greater than 10 µM at CYP2C19; greater than 10 µM at CYP2C9; greater than 10 µM on CYP3A4 (setting [1]); greater than 10 µM at CYP3A4 (setting [2]); 0.0041 µM against SOS1.

As for `CCN1CCN(c2nnc(N[C@H](C)c3cccc(C(F)F)c3F)c3cn(C4(C)CC4)c(=O)cc23)CC1` [Example 216, (R)-4-((1-(3-(difluoromethyl)-2-fluorophenyl)ethyl)amino)-1-(4-ethylpiperazin-1-yl)-6-(1-methylcyclopropyl) pyrido[3,4-d]pyridazin-7(6H)-one], the concentration for half-maximal inhibition (IC50) was greater than 10 µM on CYP2C19; greater than 10 µM on CYP2C9; greater than 10 µM at CYP3A4 (setting [1]); greater than 10 µM on CYP3A4 (setting [2]); 0.0046 µM at SOS1.

`CC(C)N1CCN(c2nnc(N[C@H](C)c3cccc(C(F)F)c3F)c3cn(C4(C)CC4)c(=O)cc23)CC1` [Example 217, (R)-4-((1-(3-(difluoromethyl)-2-fluorophenyl)ethyl)amino)-1-(4-isopropylpiperazin-1-yl)-6-(1-methylcyclopropyl) pyrido[3,4-d]pyridazin-7(6H)-one]: the IC50 is greater than 10 µM at CYP2C19; greater than 10 µM at CYP2C9; greater than 10 µM at CYP3A4 (setting [1]); greater than 10 µM on CYP3A4 (setting [2]); 0.0046 µM at SOS1.

Consider `C[C@@H](Nc1nnc(N2CCN(C(C)(C)C)CC2)c2cc(=O)n(C3(C)CC3)cc12)c1cccc(C(F)F)c1F.O=CO` [Example 222, (R)-1-(4-(tert-butyl)piperazin-1-yl)-4-((1-(3-(difluoromethyl)-2-fluorophenyl)ethyl)amino)-6-(1-methylcyclopropyl) pyrido[3,4-d]pyridazin-7(6H)-one formate], for which the IC50 is greater than 10 µM at CYP2C19; greater than 10 µM at CYP2C9; greater than 10 µM at CYP3A4 (setting [1]); greater than 10 µM at CYP3A4 (setting [2]); 0.005 µM on SOS1.
